# Patent US6642251B1, “Geometrically restricted 2-indolinone derivatives as modulators of protein kinase activity” (Sugen, Inc., priority 1998, dated 2003)
# Like-named read-outs stand apart in the source and are kept apart here.
# How the values were obtained:
# EGFR = EGFR (Homo sapiens, UniProt P00533); assay: Biochemical EGFR assay (bio EGFR), ELISA; set-up: A431 cell lysate (Screening Lab, SUGEN, Inc.); endogenous in cells; host or cells: A431; conditions: 50% inhibition of target PTK activity; read-out: bio EGFR (Page 5) IC50
# Description: This assay measures the in vitro kinase activity of EGFR using ELISA.
# 6. A431 cell lysate (Screening Lab, SUGEN, Inc.)
# 1. Coat Corning 96 well ELISA plates with 0.5 μg […] in
# 100 μl PBS per well, store overnight at 4° C.
# 2. Remove unbound SUMO1 from wells by inverting plate to remove liquid. Wash 1× with dH2O. Pat the plate on a paper towel to remove excess liquid.
# 3. Add 150 μl of Blocking Buffer to each well. Incubate for 30 min. at room temperature with shaking.
# 4. Wash plate 3× with deionized water, then once with TBST. Pat plate on a paper towel to remove excess liquid and bubbles.
# 5. Dilute lysate in PBS (7 μg lysate/100 μl PBS).
# 6. Add 100 μl of diluted lysate to each well. Shake at room temperature for 60 min.
# 7. Wash plates as described in 4, above.
# 8. Add 120 μl TBS to ELISA plate containing captured EGFR.
# 9. Dilute test compound 1:10 in TBS in 96-well polypropylene plates (ie. 10 μl compound+90 μl TBS).
# 10. Add 13.5 μl diluted test compound to ELISA plate.
# 11. Incubate for 30 minutes while shaking at room temperature.
# 13. After 5 minutes, stop reaction by adding 16.5 μl of 200 mM EDTA (pH 8.0) to each well, shaking continuously. After the EDTA has been added, shake for 1 min.
# 14. Wash 4× with deionized water, twice with TBST.
# 15. Add 100 μl anti-phosphotyrosine (1:3000 dilution.in TBST) per well. Incubate 30-45 min. at room temperature, with shaking.
# 16. Wash as described in 4, above.
# 17. Add 100 μl Biosource Goat anti-rabbit IgG peroxidase conjugate (1:2000 dilution in TBST) to each well. Incubate 30 min. at room temperature, with shaking.
# 18. Wash as described in 4, above.
# 19. Add 100 μl of ABTS/H2O2 solution to each well.
# 20. Incubate 5 to 10 minutes with shaking. Remove any bubbles.
# 21. If necessary stop reaction with the addition of 100 μl 0.2 M HCl per well.
# 22. Read assay on Dynatech MR7000 ELISA reader. Test Filter: 410 nM Reference Filter: 630 nM
# Pyk2 = Pyk2 (Homo sapiens, UniProt Q14289); assay: Pyk2 assay; assay type: biochemical; as to Pyk2, outcome of primary assay: key: DNH = did not hit in primary assay
# IGF-1 receptor = biological target: T1, IGF-1 receptor (Homo sapiens, UniProt P08069); assay: Cellular IGF-1 receptor assay (cell IGF); assay type: cell-based; conditions: for IC50: 50% inhibition of target PTK activity; as to cell IGF, outcome of primary assay: key: DNH = did not hit in primary assay
# T1 construct: expressed in transfected cells; host or cells: NIH3T3/IGF-1R
# Description: The following protocol may be used to measure phosphotyrosine level on IGF-1 receptor, which indicates IGF-1 receptor tyrosine kinase activity.
# a. The cell line used in this assay is 3T3/IGF-1R, a cell line genetically engineered to overexpresses IGF-1 receptor.
# 2. […] Incubate for 1 day then replace medium to serum-free medium (90/μl) and incubate in 5% CO2 and 37° C. overnight.
# 2. Remove the coating solution, and replace with 100 μl Blocking Buffer, and shake for 30 minutes. Remove the blocking buffer and wash the plate just before adding lysate.
# 1. The drugs are tested under serum-free condition.
# 2. Dilute drug stock (in 100% DMSO) 1:10 with DMEM in 96-well poly-propylene plate, and transfer 10 μl/well of this solution to the cells to achieve final drug dilution 1:100, and final DMSO concentration of 1.0%. Incubate the cells in 5% CO2 at 37° C. for 2 hours.
# 3. Prepare fresh cell lysis buffer (HNTG*)
# 4. After drug incubation for two hours, transfer 10 μl/well of 200 nM IGF-1 Ligand in PBS to the cells (Final Conc. is 20 nM), and incubate at 5% CO2 at 37° C. for 10 minutes.
# 5. Remove media and add 100 μl/well HNTG* and shake for 10 minutes. Look at cells under microscope to see if they are adequately lysed.
# 6. Use a 12-channel pipette to scrape the cells from the plate, and homogenize the lysate by repeated aspiration and dispensing. Transfer all the lysate to the antibody coated ELISA plate, and shake for 1 hour.
# 7. Remove the lysate, wash the plate, transfer anti-pTyr (1:3,000 with TBST) 100 μl/well, and shake for 30 minutes.
# 8. Remove anti-pTyr, wash the plate, transfer TAGO (1:3,000 with TBST) 100 μl/well, and shake for 30 minutes.
# 9. Remove detection antibody, wash the plate, and transfer fresh ABTS/H2O2 (1.2 μl H2O2 to 10 ml ABTS) 100 μl/well to the plate to start color development.
# 10. Measure OD at 410 nm with a reference wavelength of 630 nm in Dynatec MR5000.
# [1] = 50% inhibition of target PTK activity, read-out: Pyk2 IC50
# Sequence of EGFR (P00533 25-1210): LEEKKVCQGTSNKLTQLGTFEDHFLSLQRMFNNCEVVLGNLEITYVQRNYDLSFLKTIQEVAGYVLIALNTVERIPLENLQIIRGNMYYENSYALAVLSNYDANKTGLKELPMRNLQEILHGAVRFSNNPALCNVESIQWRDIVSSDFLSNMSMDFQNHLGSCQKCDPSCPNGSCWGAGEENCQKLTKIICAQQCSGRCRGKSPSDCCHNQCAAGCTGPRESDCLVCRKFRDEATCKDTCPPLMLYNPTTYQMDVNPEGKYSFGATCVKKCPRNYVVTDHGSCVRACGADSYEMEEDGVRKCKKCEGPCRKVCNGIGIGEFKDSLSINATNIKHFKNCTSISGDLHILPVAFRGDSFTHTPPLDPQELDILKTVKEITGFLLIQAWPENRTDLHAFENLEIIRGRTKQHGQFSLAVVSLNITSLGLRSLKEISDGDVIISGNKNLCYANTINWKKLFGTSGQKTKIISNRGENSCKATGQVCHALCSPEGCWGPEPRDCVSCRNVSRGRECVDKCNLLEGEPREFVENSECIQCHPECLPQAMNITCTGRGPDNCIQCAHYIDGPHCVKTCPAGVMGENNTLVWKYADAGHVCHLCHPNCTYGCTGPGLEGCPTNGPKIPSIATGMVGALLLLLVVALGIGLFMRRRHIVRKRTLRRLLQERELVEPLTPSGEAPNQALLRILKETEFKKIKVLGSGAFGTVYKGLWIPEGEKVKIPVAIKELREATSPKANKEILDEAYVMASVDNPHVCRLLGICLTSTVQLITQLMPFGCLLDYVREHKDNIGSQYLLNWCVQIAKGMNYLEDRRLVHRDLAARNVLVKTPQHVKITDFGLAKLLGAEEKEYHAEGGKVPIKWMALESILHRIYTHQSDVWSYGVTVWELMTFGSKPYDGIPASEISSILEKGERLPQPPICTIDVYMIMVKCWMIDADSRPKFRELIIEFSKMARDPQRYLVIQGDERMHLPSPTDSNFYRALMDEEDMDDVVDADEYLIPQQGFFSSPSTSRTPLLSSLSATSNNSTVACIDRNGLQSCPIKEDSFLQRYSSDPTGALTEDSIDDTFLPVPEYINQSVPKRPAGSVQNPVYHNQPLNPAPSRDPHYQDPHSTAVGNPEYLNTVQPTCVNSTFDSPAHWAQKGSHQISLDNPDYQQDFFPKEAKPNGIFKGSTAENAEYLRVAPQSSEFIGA
# T1 sequence (P08069 31-1367): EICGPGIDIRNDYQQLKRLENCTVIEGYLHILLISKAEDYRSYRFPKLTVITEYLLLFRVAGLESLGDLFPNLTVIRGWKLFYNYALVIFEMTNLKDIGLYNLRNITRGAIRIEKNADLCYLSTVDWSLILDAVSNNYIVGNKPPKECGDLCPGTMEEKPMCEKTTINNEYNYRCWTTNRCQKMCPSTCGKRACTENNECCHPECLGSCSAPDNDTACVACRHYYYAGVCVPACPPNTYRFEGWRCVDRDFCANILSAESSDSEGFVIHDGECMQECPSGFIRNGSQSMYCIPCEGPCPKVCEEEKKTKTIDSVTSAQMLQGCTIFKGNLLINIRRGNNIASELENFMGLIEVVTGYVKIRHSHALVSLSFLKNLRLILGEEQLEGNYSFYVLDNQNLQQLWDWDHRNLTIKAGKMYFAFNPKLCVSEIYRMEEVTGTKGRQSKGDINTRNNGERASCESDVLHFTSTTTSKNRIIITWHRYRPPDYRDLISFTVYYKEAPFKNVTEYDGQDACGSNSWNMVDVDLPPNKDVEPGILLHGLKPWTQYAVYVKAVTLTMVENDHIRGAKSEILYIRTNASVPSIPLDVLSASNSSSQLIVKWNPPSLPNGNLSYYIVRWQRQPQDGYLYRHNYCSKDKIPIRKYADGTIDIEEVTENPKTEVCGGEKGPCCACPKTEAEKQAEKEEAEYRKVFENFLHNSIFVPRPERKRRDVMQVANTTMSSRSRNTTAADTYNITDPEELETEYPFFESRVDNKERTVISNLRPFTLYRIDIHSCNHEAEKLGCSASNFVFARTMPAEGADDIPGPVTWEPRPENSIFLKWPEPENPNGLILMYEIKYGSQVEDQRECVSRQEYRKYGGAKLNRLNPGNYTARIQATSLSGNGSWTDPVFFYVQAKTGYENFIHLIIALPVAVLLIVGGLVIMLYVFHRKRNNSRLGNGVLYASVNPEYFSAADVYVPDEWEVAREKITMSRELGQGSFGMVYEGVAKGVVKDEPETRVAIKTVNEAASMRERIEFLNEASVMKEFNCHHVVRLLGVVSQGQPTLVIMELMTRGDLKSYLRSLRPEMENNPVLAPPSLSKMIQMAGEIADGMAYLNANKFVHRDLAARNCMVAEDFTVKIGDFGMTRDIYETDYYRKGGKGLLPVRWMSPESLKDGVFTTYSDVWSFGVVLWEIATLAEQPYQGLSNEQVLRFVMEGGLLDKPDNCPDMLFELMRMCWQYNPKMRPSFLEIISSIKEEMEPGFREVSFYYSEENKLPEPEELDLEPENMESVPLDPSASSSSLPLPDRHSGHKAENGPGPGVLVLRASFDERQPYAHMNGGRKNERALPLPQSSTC
# Sequence of Pyk2 (Q14289 whole entry, species assumed): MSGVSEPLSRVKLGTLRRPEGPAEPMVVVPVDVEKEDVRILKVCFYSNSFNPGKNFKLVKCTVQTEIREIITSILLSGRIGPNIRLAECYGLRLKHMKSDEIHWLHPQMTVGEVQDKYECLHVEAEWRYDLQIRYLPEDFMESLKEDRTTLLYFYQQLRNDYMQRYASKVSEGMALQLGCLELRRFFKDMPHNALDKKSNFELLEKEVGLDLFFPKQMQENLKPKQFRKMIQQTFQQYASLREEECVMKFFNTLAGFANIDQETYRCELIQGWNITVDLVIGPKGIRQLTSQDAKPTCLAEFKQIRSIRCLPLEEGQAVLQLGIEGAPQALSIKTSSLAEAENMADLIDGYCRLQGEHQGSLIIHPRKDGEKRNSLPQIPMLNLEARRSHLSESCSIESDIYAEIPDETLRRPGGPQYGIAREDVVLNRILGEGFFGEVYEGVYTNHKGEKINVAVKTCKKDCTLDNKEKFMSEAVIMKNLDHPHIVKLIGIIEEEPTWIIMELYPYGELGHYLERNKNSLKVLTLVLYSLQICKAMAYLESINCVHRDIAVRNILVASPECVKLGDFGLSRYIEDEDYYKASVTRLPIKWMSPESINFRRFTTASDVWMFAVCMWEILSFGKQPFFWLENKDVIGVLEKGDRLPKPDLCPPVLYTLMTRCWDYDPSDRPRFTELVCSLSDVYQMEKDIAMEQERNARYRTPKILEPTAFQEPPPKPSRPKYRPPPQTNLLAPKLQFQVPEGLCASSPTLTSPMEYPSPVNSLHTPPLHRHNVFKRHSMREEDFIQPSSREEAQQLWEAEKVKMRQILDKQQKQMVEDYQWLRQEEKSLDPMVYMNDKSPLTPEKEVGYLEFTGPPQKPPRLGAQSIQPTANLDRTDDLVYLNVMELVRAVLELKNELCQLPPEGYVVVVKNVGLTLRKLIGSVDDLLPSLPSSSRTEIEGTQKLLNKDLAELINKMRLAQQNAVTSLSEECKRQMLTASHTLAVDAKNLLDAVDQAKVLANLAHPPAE
IC50 (EGFR) [µM],IC50 (Pyk2; [1]) [µM],"cell IGF, outcome of primary assay (IGF-1 receptor)","Pyk2, outcome of primary assay (Pyk2)",Pyk2 % Inh (Pyk2; concentration not given) [%],IC50 (IGF-1 receptor) [µM],IC50 (Pyk2) [µM],SMILES
> 100,–,DNH,–,–,–,–,"O=C1Nc2ccccc2/C1=C1\CCc2cc(Br)ccc21 [Compound 9, 3-(5-Bromoindan-1-ylidene)-1,3-dihydroindol-2-one]"
> 100,–,–,–,–,> 100,–,"O=C1Nc2ccccc2/C1=C1\CCc2ccccc21 [Compound 10, 3-Indan-1-ylidene-1,3-dihydroindol-2-one]"
> 100,9.3,–,–,–,> 100,–,"COc1ccc2c(c1)C(CC(=O)O)C/C2=C1/C(=O)Nc2ccccc21 (centres unmarked) [Compound 11, [6-Methoxy-3-(2-oxo-1,2-dihydroindol-3-ylidene)-indan-1-yl]acetic Acid]"
> 100,–,–,–,–,> 100,4.5,"COc1ccc2c(c1)C(CC(=O)[O-])CC2=C1C(=O)Nc2ccccc21.[Na+] (centres unmarked) [Compound 13, [6-Methoxy-3-(2-oxo-1,2-dihydroindol-3-ylidene)-indan-1-yl]acetic Acid Sodium Salt]"

# Further lines, the compound ahead of its results:
SMILES,IC50 (EGFR) [µM],IC50 (Pyk2; [1]) [µM],"cell IGF, outcome of primary assay (IGF-1 receptor)","Pyk2, outcome of primary assay (Pyk2)",Pyk2 % Inh (Pyk2; concentration not given) [%],IC50 (IGF-1 receptor) [µM],IC50 (Pyk2) [µM]
"CC1C/C(=C2/C(=O)Nc3ccccc32)c2ccccc21 (centres unmarked) [Compound 1, 3-(3-methylindan-1-ylidene)-1,3-dihydroindol-2-one]",> 100,> 100,DNH,–,–,–,–
"Cc1cccc2c1CC/C2=C1/C(=O)Nc2ccccc21 [Compound 2, 3-(4-Methylindan-1-ylidene)-1,3-dihydroindol-2-one]",> 100,–,DNH,DNH,–,–,–
"COc1ccc2c(c1)CC/C2=C1/C(=O)Nc2ccccc21 [Compound 3, 3-(5-Methoxyindan-1-ylidene)-1,3-dihydroindol-2-one]",> 100,–,DNH,DNH,56,–,–
"CN(C)c1ccc2c(c1)CC/C2=C1/C(=O)Nc2ccccc21 [Compound 5, 3-(5-Dimethylaminoindan-1-ylidene)-1,3-dihydroindol-2-one]",> 100,79.3,DNH,–,–,–,–
"O=C1Nc2ccccc2/C1=C1\CCc2cc(Cl)ccc21 [Compound 7, 3-(5-Chloroindan-1-ylidene)-1,3-dihydroindol-2-one]",> 100,–,DNH,DNH,–,–,–
"O=C1Nc2ccccc2/C1=C1\CCc2cc(N3CCCCC3)ccc21 [Compound 8, 3-(5-Piperidin-1-yl-indan-1-ylidene)-1,3-dihydroindol-2-one]",> 100,–,DNH,DNH,–,–,–
"COc1cc2c(cc1OC)/C(=C1\C(=O)Nc3ccccc31)CC2 [Compound 12, 3-(5,6-Dimethoxyindan-1-ylidene)-1,3-dihydroindol-2-one]",> 25,–,–,DNH,–,> 25,–
